Experimental data published in the NIST ThermoML archive (doi:10.1021/acs.jced.9b00794).

Assay: mn = molality of the nth substance listed, in mol/kg
Details: 99.6 kPa, Liquid, Vibrating tube method

NC(N)=O [urea] + NC=O
mass density [kg/m3]
Details	288.15 K	298.15 K	308.15 K	318.15 K	328.15 K
m1 = 0.1057	1138.95	1130.54	1122.1	1113.61	1105.1
m1 = 0.1893	1139.77	1131.36	1122.91	1114.44	1105.94
m1 = 0.3308	1141.12	1132.72	1124.29	1115.82	1107.33
m1 = 0.4766	1142.51	1134.11	1125.69	1117.23	1108.75
m1 = 0.675	1144.34	1135.96	1127.55	1119.11	1110.64
m1 = 0.7518	1145.05	1136.67	1128.26	1119.83	1111.37
m1 = 0.8498	1145.93	1137.56	1129.16	1120.74	1112.28
m1 = 1.07	1147.9	1139.54	1131.15	1122.75	1114.3
m1 = 1.292	1149.82	1141.49	1133.11	1124.72	1116.29
m1 = 1.33	1150.15	1141.82	1133.44	1125.05	1116.63
m1 = 1.424	1150.95	1142.62	1134.26	1125.87	1117.45
m1 = 1.555	1152.06	1143.73	1135.38	1127	1118.59
m1 = 1.681	1153.09	1144.79	1136.43	1128.06	1119.66
m1 = 1.718	1153.4	1145.09	1136.75	1128.38	1119.98
m1 = 1.824	1154.26	1145.96	1137.63	1129.27	1120.87
m1 = 1.999	1155.67	1147.39	1139.06	1130.7	1122.32

NC(N)=O [urea] + O
mass density [kg/m3]
Details	288.15 K	298.15 K	308.15 K	318.15 K	328.15 K
m1 = 0.09134	1000.61	998.5	995.42	991.58	987.02
m1 = 0.2167	1002.67	1000.46	997.32	993.41	988.81
m1 = 0.3509	1004.84	1002.52	999.32	995.36	990.71
m1 = 0.5181	1007.5	1005.07	1001.77	997.75	993.05
m1 = 0.6698	1009.88	1007.34	1003.96	999.88	995.14
m1 = 0.8161	1012.14	1009.5	1006.05	1001.91	997.13
m1 = 0.9745	1014.54	1011.8	1008.27	1004.08	999.25
m1 = 1.195	1017.83	1014.96	1011.32	1007.05	1002.16
m1 = 1.33	1019.8	1016.85	1013.15	1008.83	1003.92
m1 = 1.489	1022.09	1019.05	1015.27	1010.91	1005.95
m1 = 1.6	1023.67	1020.57	1016.75	1012.35	1007.36
m1 = 1.707	1025.18	1022.02	1018.15	1013.72	1008.7
m1 = 1.898	1027.81	1024.56	1020.6	1016.12	1011.06
m1 = 2.034	1029.63	1026.33	1022.32	1017.8	1012.71
